Assay results: the Kinase Knowledgebase extract (Sharma et al. 2016)

biological target: EGFR (human) (UniProt P00533); conditions: a431
Sequence (P00533 whole entry, looked up): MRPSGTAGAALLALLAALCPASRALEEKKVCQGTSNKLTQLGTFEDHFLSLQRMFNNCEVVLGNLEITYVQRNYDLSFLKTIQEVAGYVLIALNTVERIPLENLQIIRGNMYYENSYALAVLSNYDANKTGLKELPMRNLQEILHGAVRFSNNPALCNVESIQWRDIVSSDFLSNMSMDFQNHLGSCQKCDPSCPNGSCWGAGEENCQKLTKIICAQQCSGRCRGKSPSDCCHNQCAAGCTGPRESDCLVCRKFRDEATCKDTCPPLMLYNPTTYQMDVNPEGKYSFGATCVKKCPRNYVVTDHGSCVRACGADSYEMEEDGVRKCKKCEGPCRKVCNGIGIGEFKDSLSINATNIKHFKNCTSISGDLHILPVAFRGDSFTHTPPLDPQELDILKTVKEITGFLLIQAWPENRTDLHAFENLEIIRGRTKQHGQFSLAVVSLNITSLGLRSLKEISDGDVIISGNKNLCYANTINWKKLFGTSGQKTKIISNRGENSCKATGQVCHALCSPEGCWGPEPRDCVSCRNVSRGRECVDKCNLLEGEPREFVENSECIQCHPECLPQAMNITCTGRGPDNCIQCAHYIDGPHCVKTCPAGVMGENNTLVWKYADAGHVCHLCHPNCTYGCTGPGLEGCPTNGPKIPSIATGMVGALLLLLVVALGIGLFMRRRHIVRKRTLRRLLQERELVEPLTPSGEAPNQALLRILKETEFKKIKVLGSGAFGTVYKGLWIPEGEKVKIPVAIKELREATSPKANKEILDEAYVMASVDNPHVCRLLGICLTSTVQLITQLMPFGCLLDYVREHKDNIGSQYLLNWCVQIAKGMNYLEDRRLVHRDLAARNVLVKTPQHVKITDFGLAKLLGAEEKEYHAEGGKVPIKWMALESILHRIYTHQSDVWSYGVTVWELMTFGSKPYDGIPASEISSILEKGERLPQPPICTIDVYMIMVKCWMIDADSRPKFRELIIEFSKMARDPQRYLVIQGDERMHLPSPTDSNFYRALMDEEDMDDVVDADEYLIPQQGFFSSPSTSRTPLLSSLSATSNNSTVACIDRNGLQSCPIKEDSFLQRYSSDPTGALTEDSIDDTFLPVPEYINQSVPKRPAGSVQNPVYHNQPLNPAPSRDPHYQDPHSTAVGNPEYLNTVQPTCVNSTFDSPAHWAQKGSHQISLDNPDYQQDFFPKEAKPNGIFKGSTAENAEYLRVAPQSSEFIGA

IC50, > 10 µM:
CS(=O)(=O)Nc1cccc(Nc2ncnc3cc4c(cc23)OCCO4)c1, Cc1cccc(Nc2ncnc3c2ccc2ccccc23)c1, Cc1cccc(Nc2ncnc3cc4c(cc23)n(C)c(=O)n4C)c1, Brc1cccc(Nc2ncnc3c2ccc2ccccc23)c1, Cn1c(=O)n(C)c2cc3c(Nc4cccc(Br)c4)ncnc3cc21, Cc1cccc(Nc2ncnc3cc4c(cc23)OCCO4)n1, Cc1ccnc(Nc2ncnc3cc4c(cc23)OCO4)c1, CS(=O)(=O)Nc1cccc(Nc2ncnc3cc4c(cc23)OCO4)c1, FC(F)(F)c1cccc(Nc2ncnc3c2ccc2ccccc23)c1, Cc1cccc(Nc2ncnc3cc4c(cc23)OCO4)n1, Cn1c(=O)n(C)c2cc3c(Nc4cccc(C(F)(F)F)c4)ncnc3cc21
